Measured values: PMC9629815, “MK256 is a novel CDK8 inhibitor with potent antitumor activity in AML through downregulation of the STAT pathway” (Oncotarget, 2022)
Where two headings read alike, the source gives them in different places.

Experiments:
hERG = hERG (Homo sapiens, UniProt Q12809); experiment: hERG safety assay; conditions: 30 uM
CYR2C8 = CYR2C8 (Homo sapiens, UniProt P10632); experiment: Cytochrome P450 inhibition assay; assay type: in vitro ADME; conditions: 50 uM
CYP2C19 = CYP2C19 (Homo sapiens, UniProt P33261); experiment: Cytochrome P450 inhibition assay; assay type: in vitro ADME; conditions: 50 uM
Sequence of CYP2C19 (P33261 whole entry): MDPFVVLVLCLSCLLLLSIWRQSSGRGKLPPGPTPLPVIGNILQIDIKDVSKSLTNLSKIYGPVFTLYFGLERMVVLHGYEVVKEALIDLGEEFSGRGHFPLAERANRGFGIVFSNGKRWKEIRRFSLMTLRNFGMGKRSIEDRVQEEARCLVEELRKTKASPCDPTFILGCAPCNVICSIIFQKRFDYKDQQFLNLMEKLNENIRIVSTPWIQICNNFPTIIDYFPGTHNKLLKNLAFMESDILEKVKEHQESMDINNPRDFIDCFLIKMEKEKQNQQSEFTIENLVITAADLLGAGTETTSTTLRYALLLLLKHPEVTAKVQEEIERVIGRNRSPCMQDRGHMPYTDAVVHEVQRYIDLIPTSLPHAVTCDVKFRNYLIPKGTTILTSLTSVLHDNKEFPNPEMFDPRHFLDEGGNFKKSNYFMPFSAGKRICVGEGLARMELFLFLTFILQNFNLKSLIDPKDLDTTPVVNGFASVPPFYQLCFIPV

In vivo mouse PK study = experiment: In vivo mouse PK study; set-up: species or system mice; conditions: plasma
Protocol: Mice were dosed with either 1 mg/ml (IV) at a dose of 3 mg/kg or 3 mg/ml (PO) at a dose of 30 mg/kg in 40% PEG400 + 60% (30% Solutol) (final pH ~ 7). Blood samples were drawn at 5 mins, 15 mins, 30 mins, 1 hr, 2 hrs, 4 hrs, 8 hrs, and 24 hs from mice dosed with the IV route and at 1 hr, 4 hrs, 8 hrs and 24 hrs from mice dosed orally. An aliquot of 30 μL of plasma was extracted with 100 μL of 5:95 methanol:acetonitrile containing internal standard (Verapamil). The mixture was vortexed on a shaker for 15 minutes and subsequently centrifuged at 4000 rpm for 15 minutes. An aliquot of 70 μL of the supernatant was mixed with 70 μL water with 0.1% formic acid for the injection to the LC/MS/MS. Calibration standards were prepared by spiking MK256 into the blank mouse plasma. All samples are analyzed on LC/MS/MS using an AB Sciex API 4000 instrument, coupled to a Shimadzu LC-20AD LC Pump system.

NOMO-1 = experiment: Cell proliferation assay (CellTiter-Glo, 7-day); assay type: cell-based; conditions: Homo sapiens, NOMO-1, 168 h
Protocol: [The procedure below names another cell line; the source lists this cell line under the same test.] (§1) AML cell lines MV-4-11, MOLM14, KG-1, and SKNO-1 were acquired from ATCC (Manassas, VA, USA) and DSMZ (Braunschweig, Germany). Cells were plated (96-well) in triplicate at 3000 cells per well for testing (n = 3) in 1% FBS media. On day 7, the CellTiter-Glo Luminescent Cell Viability Assay (Promega, Madison, WI, US) was performed to measure the response. Two independent experiments were done.

MONO-MAC-6 = experiment: Cell proliferation assay (CellTiter-Glo, 7-day); assay type: cell-based; conditions: Homo sapiens, MONO-MAC-6, 168 h
Protocol: [The procedure below names another cell line; the source lists this cell line under the same test.] as §1

MV-4-11 = experiment: Cell proliferation assay (CellTiter-Glo, 7-day); assay type: cell-based; conditions: Homo sapiens, MV4-11, 168 h
Protocol: as §1

MOLM-13 = experiment: Cell proliferation assay (CellTiter-Glo, 7-day); assay type: cell-based; conditions: Homo sapiens, MOLM-13, 168 h
Protocol: [The procedure below names another cell line; the source lists this cell line under the same test.] as §1

MUTZ-8 = experiment: Cell proliferation assay (CellTiter-Glo, 7-day); assay type: cell-based; conditions: MUTZ-8, 168 h
Protocol: [The procedure below names another cell line; the source lists this cell line under the same test.] as §1

HEL = experiment: Cell proliferation assay (CellTiter-Glo, 7-day); assay type: cell-based; conditions: Homo sapiens, 168 h
Protocol: [The procedure below names another cell line; the source lists this cell line under the same test.] as §1

KG-1 = experiment: Cell proliferation assay (CellTiter-Glo, 7-day); assay type: cell-based; conditions: Homo sapiens, KG-1, 168 h
Protocol: as §1

SKNO-1 = experiment: Cell proliferation assay (CellTiter-Glo, 7-day); assay type: cell-based; conditions: SKNO-1, 168 h
Protocol: as §1

MOLM-14 = experiment: Cell proliferation assay (CellTiter-Glo, 7-day); assay type: cell-based; conditions: Homo sapiens, MOLM-14, 168 h
Protocol: as §1

CDK17/cyclin Y = CDK17/cyclin Y (Homo sapiens, UniProt Q00537); experiment: CDK panel kinase inhibition; assay type: biochemical; conditions: read-out: Percentage of inhibition (%)
Sequence of CDK17/cyclin Y (Q00537 whole entry): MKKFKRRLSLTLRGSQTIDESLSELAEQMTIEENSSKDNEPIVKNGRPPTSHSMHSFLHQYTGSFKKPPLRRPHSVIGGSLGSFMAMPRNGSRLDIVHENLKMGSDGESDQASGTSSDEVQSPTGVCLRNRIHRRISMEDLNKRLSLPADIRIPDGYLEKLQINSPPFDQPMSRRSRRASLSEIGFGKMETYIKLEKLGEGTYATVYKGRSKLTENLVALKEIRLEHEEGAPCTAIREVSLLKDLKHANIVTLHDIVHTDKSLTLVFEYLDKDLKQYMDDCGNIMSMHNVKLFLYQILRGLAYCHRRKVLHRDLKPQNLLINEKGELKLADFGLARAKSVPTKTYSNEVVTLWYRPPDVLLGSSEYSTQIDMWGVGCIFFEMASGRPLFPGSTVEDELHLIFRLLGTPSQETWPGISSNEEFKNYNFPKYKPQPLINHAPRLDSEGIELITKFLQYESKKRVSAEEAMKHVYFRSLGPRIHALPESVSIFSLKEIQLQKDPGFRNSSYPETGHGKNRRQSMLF
Sequence of CDK17/cyclin Y (Q8ND76 whole entry partner): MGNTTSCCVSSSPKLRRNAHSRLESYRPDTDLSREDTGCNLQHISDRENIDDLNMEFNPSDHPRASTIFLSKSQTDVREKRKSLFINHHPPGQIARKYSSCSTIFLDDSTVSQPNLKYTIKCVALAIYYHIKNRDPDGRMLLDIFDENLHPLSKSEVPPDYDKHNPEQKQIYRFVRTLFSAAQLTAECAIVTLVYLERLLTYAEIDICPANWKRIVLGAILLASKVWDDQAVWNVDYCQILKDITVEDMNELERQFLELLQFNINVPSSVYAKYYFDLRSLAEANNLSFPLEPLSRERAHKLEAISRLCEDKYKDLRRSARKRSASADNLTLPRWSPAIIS
From the text: (§2) MK256 was synthesized in house. The kinase profiling of MK256 against various targets was done using the SelectScreen Kinase Profiling Services provided by ThermoFisher Scientific (Walham WA, USA). https://www.thermofisher.com/us/en/home/products-and-services/services/custom-services/screening-and-profiling-services/selectscreen-profiling-service/selectscreen-kinase-profiling-service.html.

CDK6/cyclin D1 = CDK6/cyclin D1 (Homo sapiens, UniProt Q00534); experiment: CDK panel kinase inhibition; assay type: biochemical; conditions: read-out: Percentage of inhibition (%)
Sequence of CDK6/cyclin D1 (Q00534 whole entry): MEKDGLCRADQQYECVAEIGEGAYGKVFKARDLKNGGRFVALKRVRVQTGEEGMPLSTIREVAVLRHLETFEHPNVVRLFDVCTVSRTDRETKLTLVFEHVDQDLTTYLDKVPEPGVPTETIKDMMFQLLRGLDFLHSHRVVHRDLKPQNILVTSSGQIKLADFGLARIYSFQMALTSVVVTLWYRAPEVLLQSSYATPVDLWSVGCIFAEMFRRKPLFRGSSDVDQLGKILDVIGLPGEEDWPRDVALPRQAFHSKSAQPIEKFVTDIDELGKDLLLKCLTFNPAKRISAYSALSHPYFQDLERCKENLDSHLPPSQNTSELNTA
Sequence of CDK6/cyclin D1 (P24385 whole entry partner): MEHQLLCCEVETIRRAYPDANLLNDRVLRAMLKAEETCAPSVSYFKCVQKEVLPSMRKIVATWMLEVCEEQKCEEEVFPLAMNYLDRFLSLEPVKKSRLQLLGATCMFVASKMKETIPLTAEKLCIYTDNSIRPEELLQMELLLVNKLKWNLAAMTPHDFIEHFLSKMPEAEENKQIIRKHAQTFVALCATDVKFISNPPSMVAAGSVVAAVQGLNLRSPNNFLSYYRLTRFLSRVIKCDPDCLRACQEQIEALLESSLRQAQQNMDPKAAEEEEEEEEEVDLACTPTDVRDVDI
From the text: as §2

CDK4/cyclin D3 = CDK4/cyclin D3 (Homo sapiens, UniProt P11802); experiment: CDK panel kinase inhibition; assay type: biochemical; conditions: read-out: Percentage of inhibition (%)
Sequence of CDK4/cyclin D3 (P11802 whole entry): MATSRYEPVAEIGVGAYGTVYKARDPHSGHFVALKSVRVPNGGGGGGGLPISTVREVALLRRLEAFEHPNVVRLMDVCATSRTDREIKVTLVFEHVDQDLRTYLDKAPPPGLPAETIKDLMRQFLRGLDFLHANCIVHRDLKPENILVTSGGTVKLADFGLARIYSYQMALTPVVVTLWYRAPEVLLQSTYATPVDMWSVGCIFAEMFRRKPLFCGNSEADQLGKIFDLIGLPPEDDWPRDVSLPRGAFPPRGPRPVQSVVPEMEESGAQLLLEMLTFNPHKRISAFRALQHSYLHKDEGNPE
Sequence of CDK4/cyclin D3 (P30281 whole entry partner): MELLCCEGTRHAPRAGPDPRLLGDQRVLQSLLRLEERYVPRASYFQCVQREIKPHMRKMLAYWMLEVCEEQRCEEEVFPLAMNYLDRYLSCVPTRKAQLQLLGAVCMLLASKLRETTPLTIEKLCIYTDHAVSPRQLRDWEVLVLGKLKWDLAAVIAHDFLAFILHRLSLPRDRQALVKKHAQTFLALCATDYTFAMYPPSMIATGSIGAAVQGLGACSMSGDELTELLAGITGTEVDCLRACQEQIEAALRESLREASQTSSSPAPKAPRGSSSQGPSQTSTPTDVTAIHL
From the text: as §2

CDK5/p25 = CDK5/p25 (Homo sapiens, UniProt Q00535); experiment: CDK panel kinase inhibition; assay type: biochemical; conditions: read-out: Percentage of inhibition (%)
Sequence of CDK5/p25 (Q00535 whole entry): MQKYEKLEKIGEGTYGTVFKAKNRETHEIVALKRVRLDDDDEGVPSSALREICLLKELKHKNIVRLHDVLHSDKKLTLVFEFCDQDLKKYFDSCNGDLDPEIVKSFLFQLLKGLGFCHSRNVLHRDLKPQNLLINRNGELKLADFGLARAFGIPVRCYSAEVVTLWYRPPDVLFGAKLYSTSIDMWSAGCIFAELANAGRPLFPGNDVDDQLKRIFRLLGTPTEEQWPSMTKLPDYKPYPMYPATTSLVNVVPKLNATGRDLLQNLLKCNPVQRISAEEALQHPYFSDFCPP
Sequence of CDK5/p25 (Q15078 99-307 partner limits assumed): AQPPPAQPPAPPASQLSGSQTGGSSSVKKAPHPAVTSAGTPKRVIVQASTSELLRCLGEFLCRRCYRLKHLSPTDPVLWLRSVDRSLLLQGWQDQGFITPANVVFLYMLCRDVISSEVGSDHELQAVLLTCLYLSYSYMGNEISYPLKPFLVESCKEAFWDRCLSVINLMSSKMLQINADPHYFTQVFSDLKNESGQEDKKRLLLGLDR
From the text: as §2

MOLM-14 cells = experiment: Cell viability dose-response matrix of MK256 and venetoclax; assay type: cell-based; conditions: Homo sapiens, Venetoclax 0 nM, 72 hrs, read-out: percentage of cell viability
From the text: Our earlier experiments showing the clearly increasing expression of BCL-2 in the MOLM-14 cell line led us to ask if there was any combinational effect between MK256 and a BCL-2 inhibitor in MOLM-14 cells. To address this question, we chose venetoclax (ABT-199), an FDA-approved BCL-2 inhibitor for AML and CLL, for the combination study. We treated MOLM-14 cells with MK256 and venetoclax at a series of concentration combinations, measured cell viability, and reported the data in a dose-response matrix (Figure 8). […] We also investigated the apoptotic effect of the combination treatment in the MOLM-14 cell line (Figure 10B).
Figure 10 (A) Dose-response matrix of percentage of cell viability of 10,000 MOLM-14 cells after 72 hrs treatment of MK256 and venetoclax at various concentration combinations. (B) Annexin V staining of 10,000 MOLM-14 cells after 72 hrs treatment of MK256 and venetoclax(ABT199) at various concentration combinations. Status of cells are labeled in the graph at the upper left corner. (C) Tumor growth of MOLM-14 xenograft model. Groups of control; ABT199 (25 mg/kg); ABT199 (25 mg/kg) + MK256 (10 mg/kg); ABT199 25 mg/kg + MK256 (50 mg/kg) were shown in straight line, dotted line, 3 dashed line and 2 dashed line, respectively. ^*** P < 0.001. (D) Body weight percentage of MOLM-14 tumor model. […]

[1] = IV 3 mg/kg or PO 30 mg/kg study, footnote 2 not given
[2] = 7-day, bound given in text, read-out: IC50

Sequence of CYR2C8 (P10632 whole entry): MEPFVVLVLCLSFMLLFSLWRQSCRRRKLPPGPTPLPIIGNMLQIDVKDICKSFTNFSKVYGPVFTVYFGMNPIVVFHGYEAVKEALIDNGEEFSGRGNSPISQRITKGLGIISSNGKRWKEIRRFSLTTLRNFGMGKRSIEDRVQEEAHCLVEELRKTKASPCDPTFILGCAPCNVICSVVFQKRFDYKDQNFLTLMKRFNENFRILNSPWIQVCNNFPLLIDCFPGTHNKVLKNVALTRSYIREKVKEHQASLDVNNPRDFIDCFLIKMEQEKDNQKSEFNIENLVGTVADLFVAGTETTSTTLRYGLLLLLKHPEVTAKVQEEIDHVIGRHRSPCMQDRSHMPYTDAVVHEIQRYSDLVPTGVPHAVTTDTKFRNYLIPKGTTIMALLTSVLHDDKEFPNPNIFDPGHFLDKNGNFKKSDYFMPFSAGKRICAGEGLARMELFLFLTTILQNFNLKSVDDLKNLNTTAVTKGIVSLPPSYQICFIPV
Sequence of hERG (Q12809 whole entry): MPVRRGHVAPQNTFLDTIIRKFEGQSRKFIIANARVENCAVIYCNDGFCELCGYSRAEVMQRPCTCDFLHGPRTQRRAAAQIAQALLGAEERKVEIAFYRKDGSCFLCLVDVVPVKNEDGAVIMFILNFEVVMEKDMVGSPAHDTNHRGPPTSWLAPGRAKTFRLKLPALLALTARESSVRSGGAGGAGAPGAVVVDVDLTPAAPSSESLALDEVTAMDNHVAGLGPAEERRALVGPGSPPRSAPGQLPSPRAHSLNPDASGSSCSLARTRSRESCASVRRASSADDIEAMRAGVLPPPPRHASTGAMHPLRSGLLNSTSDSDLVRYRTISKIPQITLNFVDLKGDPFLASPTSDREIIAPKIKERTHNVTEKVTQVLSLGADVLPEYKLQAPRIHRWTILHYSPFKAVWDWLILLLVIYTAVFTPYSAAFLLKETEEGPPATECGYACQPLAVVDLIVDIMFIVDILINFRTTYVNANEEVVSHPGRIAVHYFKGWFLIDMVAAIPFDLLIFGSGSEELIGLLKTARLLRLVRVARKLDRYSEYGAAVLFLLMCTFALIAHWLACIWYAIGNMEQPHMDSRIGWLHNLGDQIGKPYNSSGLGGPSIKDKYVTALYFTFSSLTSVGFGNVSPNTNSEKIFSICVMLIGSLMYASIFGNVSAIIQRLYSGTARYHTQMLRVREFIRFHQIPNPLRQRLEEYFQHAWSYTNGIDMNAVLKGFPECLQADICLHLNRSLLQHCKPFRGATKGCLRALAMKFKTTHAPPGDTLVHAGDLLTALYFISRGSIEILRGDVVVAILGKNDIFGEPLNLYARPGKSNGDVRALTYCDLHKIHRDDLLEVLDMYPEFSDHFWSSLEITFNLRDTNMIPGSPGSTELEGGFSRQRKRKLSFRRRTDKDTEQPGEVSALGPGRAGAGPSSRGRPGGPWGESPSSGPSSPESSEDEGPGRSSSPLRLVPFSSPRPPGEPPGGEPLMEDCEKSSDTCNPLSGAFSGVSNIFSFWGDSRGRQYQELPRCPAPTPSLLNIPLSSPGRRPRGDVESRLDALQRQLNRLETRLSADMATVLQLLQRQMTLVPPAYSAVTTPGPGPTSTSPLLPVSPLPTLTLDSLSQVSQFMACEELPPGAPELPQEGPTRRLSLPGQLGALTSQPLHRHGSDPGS

Which “inhibition of hERG” value (hERG) does the source give for `Nc1nccc2c(Br)cc3cc(C(=O)O)ccc3c12` [MK256] here?
The value was “no inhibition”.

What about the “cytochrome P450 inhibition” value (CYR2C8) of the same compound?
The value was “no inhibition”.

And the “cytochrome P450 inhibition” value (CYP2C19)?
The value was “no inhibition”.

And the AUC(0-t) (In vivo mouse PK study; [1])?
Its AUC(0-t) is 330 µM·h.

What about the Cmax (In vivo mouse PK study; [1]) of the same compound?
The Cmax was 29 µM.

And the half-life (In vivo mouse PK study; [1])?
Its half-life is 3.6 h.

And the bioavailability (In vivo mouse PK study; PO 30 mg/kg vs IV 3 mg/kg)?
Its bioavailability is 59%.

And the clearance (In vivo mouse PK study; intravenous, 3 mg/kg)?
The clearance was 2.83 mL/min/kg.

And the Vd (In vivo mouse PK study; intravenous, 3 mg/kg, read-out: Vss)?
Its Vd is 0.49 L/kg.

What about the IC50 (NOMO-1) of the same compound?
Its IC50 is 646 nM.

And the IC50 (MONO-MAC-6)?
Its IC50 is 1260 nM.

What about the IC50 (MV-4-11) of the same compound?
Its IC50 is 23 nM.

What about the IC50 (MOLM-13) of the same compound?
Its IC50 is 1050 nM.

And the IC50 (MUTZ-8; [2])?
Its IC50 is over 2000 nM.

What about the IC50 (MUTZ-8; read-out: IC50 nM (7-day)) of the same compound?
Its IC50 is 5560 nM.

And the IC50 (HEL; [2])?
The IC50 was over 2000 nM.

And the IC50 (HEL; read-out: IC50 nM (7-day))?
The IC50 was 2700 nM.

And the IC50 (KG-1)?
The IC50 was 80 nM.

And the IC50 (SKNO-1)?
The IC50 was 73 nM.

And the IC50 (MOLM-14)?
Its IC50 is 24 nM.

And the inhibition at 0.2 µM (CDK17/cyclin Y; 200 nM)?
The inhibition at 0.2 µM was 25%.

What about the inhibition at 10 µM (CDK17/cyclin Y; 10 μM) of the same compound?
Its inhibition at 10 µM is 94%.

What about the inhibition at 0.2 µM (CDK6/cyclin D1; 200 nM) of the same compound?
The inhibition at 0.2 µM was -12%.

And the inhibition at 10 µM (CDK6/cyclin D1; 10 μM)?
The inhibition at 10 µM was 23%.

What about the inhibition at 0.2 µM (CDK4/cyclin D3; 200 nM) of the same compound?
Its inhibition at 0.2 µM is -3%.

What about the inhibition at 10 µM (CDK4/cyclin D3; 10 μM) of the same compound?
The inhibition at 10 µM was 23%.

And the inhibition at 0.2 µM (CDK5/p25; 200 nM)?
Its inhibition at 0.2 µM is 2%.

And the inhibition at 10 µM (CDK5/p25; 10 μM)?
Its inhibition at 10 µM is 89%.

What about the viability at 0.0015 µM (MOLM-14 cells; MK256 1.5 nM) of the same compound?
The viability at 0.0015 µM was 110%.

What about the viability at 0.0046 µM (MOLM-14 cells; MK256 4.6 nM) of the same compound?
The viability at 0.0046 µM was 101%.

And the viability at 0.0137 µM (MOLM-14 cells; MK256 13.7 nM)?
The viability at 0.0137 µM was 103%.

What about the viability at 0.0412 µM (MOLM-14 cells; MK256 41.2 nM) of the same compound?
Its viability at 0.0412 µM is 103%.

And the viability at 0.1235 µM (MOLM-14 cells; MK256 123.5 nM)?
The viability at 0.1235 µM was 100%.

What about the viability at 0.3704 µM (MOLM-14 cells; MK256 370.4 nM) of the same compound?
The viability at 0.3704 µM was 90%.

And the viability at 1.1 µM (MOLM-14 cells; MK256 1100 nM)?
The viability at 1.1 µM was 32%.

And the viability at 10 µM (MOLM-14 cells; MK256 10000 nM)?
The viability at 10 µM was 0%.

And the viability at 30 µM (MOLM-14 cells; MK256 30000 nM)?
Its viability at 30 µM is 0%.
